Laboratory results: patent US8541567B2, “Transition state structure of 5′-methylthioadenosine/s-adenosylhomocysteine nucleosidases” (Albert Einstein College of Medicine of Yeshiva University, priority 2005, dated 2013)
“Also recorded” adds a separate entry of the source.

What was measured:
[1] = 9-deazapurine ring; cited from earlier work
E. coli MTAN [2] = target: T1, E. coli MTAN (Escherichia coli, UniProt P0AF12); assay: Slow-onset inhibition of E. coli MTAN by transition state analogues; assay type: biochemical; conditions: Kd 47 fM versus Km 4.3 μM
T1 construct: consists of 232 amino acids belonging to E. coli MTAN and 10 residues from the N-terminal histidine fusion tag; histidine tag (N, cleaved yes); made in house

E. coli MTAN [3] = target: T1, E. coli MTAN; conditions: cited from earlier work; for substrate activity: result in words
E. coli MTAN [4] = target: T1, E. coli MTAN; conditions: overall / equilibrium dissociation constant; read-out: dissociation constant (Kd) following slow-onset inhibition, or Ki*; cited from earlier work

T1 sequence (P0AF12 whole entry, the tested form may be a part): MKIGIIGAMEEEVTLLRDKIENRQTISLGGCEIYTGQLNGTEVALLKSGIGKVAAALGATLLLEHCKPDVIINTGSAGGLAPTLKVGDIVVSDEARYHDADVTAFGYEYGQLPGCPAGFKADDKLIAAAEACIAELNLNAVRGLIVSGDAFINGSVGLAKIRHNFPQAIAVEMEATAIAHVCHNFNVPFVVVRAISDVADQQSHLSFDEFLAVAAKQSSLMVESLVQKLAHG

For `Nc1ncnc2cc[nH]c12` [9-deazaadenine], the “pKa at N7” value [1] is given as greater than 10.

With `Nc1ncnc2c(CN3C[C@H](CSc4ccc(Cl)cc4)[C@@H](O)C3)c[nH]c12` [pC1PhT-DADMe-ImmA, (3R,4S)-4-(4-chlorophenylthiomethyl)-1-[(9-deazaadenin-9-yl]methyl)-3-hydroxypyrrolidine] the “binds tighter than the substrate S-adenosylhomocysteine” value (E. coli MTAN [2]) was 91 million.

In the case of `CSC[C@H]1O[C@@H](n2cnc3c(N)ncnc32)C[C@@H]1O` [2′-deoxy-MTA], the catalytic activity retained (E. coli MTAN [3]; relative to MTA) is given as 85% and the substrate activity (E. coli MTAN [3]) is given as “good substrate”.

For `CSC[C@@H]1C[C@@H](O)[C@H](n2cnc3c(N)ncnc32)O1` [3′-deoxy-MTA], the substrate activity (E. coli MTAN [3]) is given as “is not; also recorded: not a substrate”.

In the case of “(1S)-1-(9-deazaadenin-9-yl)-1,4-dideoxy-1,4-imino-5-methylthio-D-ribitol [MT-ImmA]”, the Kd (E. coli MTAN [4]) is given as 0.077 nM.

For `Nc1ncnc2c1ncn2[C@@H]1O[C@H](CSCC[C@H](N)C(=O)O)[C@@H](O)[C@H]1O` [S-adenosylhomocysteine], the Km (E. coli MTAN [3]; substrate S-adenosylhomocysteine) is given as 4.3 µM.
